Source: patent US8633245B2, “PAI-1 inhibitor” (Institute of Medicinal Molecular Design, Inc., priority 2008, dated 2014)

Columns and labels:
recombinant human PAI-1 [1] = target: T1, recombinant human PAI-1 (Homo sapiens, UniProt P05121); assay: Test Example 1: human PAI-1 inhibitory activity (tPA fluorogenic substrate, pH 7.5 Tris buffer); type: biochemical; details: Tris buffer
T1 construct: purchased Molecular Innovations, Inc
Experimental: 50 mM Tris, 150 mM NaCl, 10 μg/ml BSA, 0.01% Tween80 (SIGMA-ALDRICH Corporation)

recombinant human PAI-1 [2] = target: T1, recombinant human PAI-1; assay: Test Example 2: human PAI-1 inhibitory activity (tPA fluorogenic substrate, pH 7.4 HEPES buffer); type: biochemical; details: human PAI-1
Experimental: 0.1 M HEPES, 0.1 M NaCl. 1 mM EDTA. 0.1% Polyethylene glycol 8,000 (Hampton Research Corporation),
2 mM Dimethyldecylphoshine oxide [Apo-10] (Fluka Corporation)

[3] = compound concentration 0.1 μM, 0.1 µM
[4] = compound concentration 0.3 μM, 0.3 µM
[5] = compound concentration 1 μM, 1 µM
[6] = compound concentration 3 μM, 3 µM

T1 sequence (P05121 24-402): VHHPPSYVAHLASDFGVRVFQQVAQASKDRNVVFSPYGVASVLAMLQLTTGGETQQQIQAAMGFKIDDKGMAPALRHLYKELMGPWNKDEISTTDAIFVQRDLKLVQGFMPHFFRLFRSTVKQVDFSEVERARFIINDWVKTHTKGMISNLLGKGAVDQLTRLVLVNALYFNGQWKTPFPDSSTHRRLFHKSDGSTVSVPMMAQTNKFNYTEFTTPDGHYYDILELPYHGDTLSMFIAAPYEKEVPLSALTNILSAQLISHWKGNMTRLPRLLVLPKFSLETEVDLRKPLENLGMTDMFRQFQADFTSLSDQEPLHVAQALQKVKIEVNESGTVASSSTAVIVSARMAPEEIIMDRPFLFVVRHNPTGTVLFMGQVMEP

Structure (SMILES) | Inhibition Rate of PAI-1 Activity (%) (recombinant human PAI-1 [1]; Compound Concentration 10 μM) | Inhibition Rate of PAI-1 Activity (%) (recombinant human PAI-1 [2]; compound concentration 0.1 μM) | Inhibition Rate of PAI-1 Activity (%) (recombinant human PAI-1 [2]; compound concentration 0.3 μM) | Inhibition Rate of PAI-1 Activity (%) (recombinant human PAI-1 [2]; compound concentration 1 μM) | Inhibition Rate of PAI-1 Activity (%) (recombinant human PAI-1 [2]; compound concentration 3 μM) | further results
O=C(O)Cc1cc(-c2ccc(OC(F)(F)F)cc2)ccc1OCc1ccccc1 [Compound 1] | 31% | – | – | – | – | Inhibition Rate of PAI-1 Activity (%) (recombinant human PAI-1 [1]; Compound Concentration 5 μM): 18%
O=C(O)CCc1cc(-c2ccc(OC(F)(F)F)cc2)ccc1OCc1ccccc1 [Compound 3] | 68% | – | – | – | – | Inhibition Rate of PAI-1 Activity (%) (recombinant human PAI-1 [1]; Compound Concentration 5 μM): 35%
CC(C)(C)c1ccc(COc2ccc(-c3ccc(OC(F)(F)F)cc3)cc2C=CC(=O)O)cc1 [Compound 4] | 78% | – | – | – | – | Inhibition Rate of PAI-1 Activity (%) (recombinant human PAI-1 [1]; Compound Concentration 5 μM): 84%
CC(C)(C)c1ccc(COc2ccc(-c3ccc(OC(F)(F)F)cc3)cc2NC(=O)C(=O)[O-])cc1.[Na+] [Compound 6] | 94% | – | – | – | – | Inhibition Rate of PAI-1 Activity (%) (recombinant human PAI-1 [1]; Compound Concentration 5 μM): 83%
CC(C)(C)c1ccc(COc2ccc(-c3ccc4c(c3)OCO4)cc2CC(=O)O)cc1 [Compound 10] | 65% | – | – | – | – | Inhibition Rate of PAI-1 Activity (%) (recombinant human PAI-1 [1]; Compound Concentration 5 μM): 32%; Inhibition Rate of PAI-1 Activity (%) (recombinant human PAI-1 [1]; Compound Concentration 25 μM): >99%
Cc1cc(C)cc(COc2ccc(-c3ccc(OC(F)(F)F)cc3)cc2CC(=O)O)c1 [Compound 11] | 84% | – | – | – | – | Inhibition Rate of PAI-1 Activity (%) (recombinant human PAI-1 [1]; Compound Concentration 5 μM): 41%; Inhibition Rate of PAI-1 Activity (%) (recombinant human PAI-1 [1]; Compound Concentration 25 μM): 99%
CC(C)(C)c1ccc(Oc2ccc(-c3ccc(OC(F)(F)F)cc3)cc2C=CC(=O)O)cc1 [Compound 12] | 94% | – | – | – | – | Inhibition Rate of PAI-1 Activity (%) (recombinant human PAI-1 [1]; Compound Concentration 5 μM): 92%
O=C(O)CCc1cc(-c2ccc(OC(F)(F)F)cc2)ccc1Oc1ccc(C(=O)O)cc1 [Compound 14] | 3% | – | – | – | – | –
O=C(O)C=Cc1cc(-c2ccc(OC(F)(F)F)cc2)ccc1Oc1ccc(OC(F)(F)F)cc1 [Compound 15] | 47% | – | – | – | – | Inhibition Rate of PAI-1 Activity (%) (recombinant human PAI-1 [1]; Compound Concentration 5 μM): 23%; Inhibition Rate of PAI-1 Activity (%) (recombinant human PAI-1 [1]; Compound Concentration 25 μM): 94%
O=C(O)CCc1cc(-c2ccc(OC(F)(F)F)cc2)ccc1Oc1ccc(OC(F)(F)F)cc1 [Compound 16] | 46% | – | – | – | – | Inhibition Rate of PAI-1 Activity (%) (recombinant human PAI-1 [1]; Compound Concentration 5 μM): 23%; Inhibition Rate of PAI-1 Activity (%) (recombinant human PAI-1 [1]; Compound Concentration 25 μM): 96%
O=C(O)CCc1cc(-c2ccc(OC(F)(F)F)cc2)ccc1OCc1ccc(F)cc1 [Compound 20] | 10% | – | – | – | – | Inhibition Rate of PAI-1 Activity (%) (recombinant human PAI-1 [1]; Compound Concentration 25 μM): 53%
O=C(O)CCc1cc(-c2ccc(OC(F)(F)F)cc2)ccc1OCc1ccccc1C(F)(F)F [Compound 21] | 11% | – | – | – | – | Inhibition Rate of PAI-1 Activity (%) (recombinant human PAI-1 [1]; Compound Concentration 25 μM): 70%
O=C(O)CCc1cc(-c2ccc(OC(F)(F)F)cc2)ccc1OCc1ccc(C(F)(F)F)cc1 [Compound 22] | 13% | – | – | – | – | Inhibition Rate of PAI-1 Activity (%) (recombinant human PAI-1 [1]; Compound Concentration 25 μM): 80%
COc1ccccc1COc1ccc(-c2ccc(OC(F)(F)F)cc2)cc1CCC(=O)O [Compound 23] | 7% | – | – | – | – | Inhibition Rate of PAI-1 Activity (%) (recombinant human PAI-1 [1]; Compound Concentration 25 μM): 47%
CCCCCN(C(=O)C(=O)O)c1cc(-c2ccc(OC(F)(F)F)cc2)ccc1OCCCOc1ccccc1 [Compound 657] | – | 15% | 20% | 99% | >99% | –
O=C(O)C(=O)N(CCCCc1ccccc1)c1cc(-c2ccc(OC(F)(F)F)cc2)ccc1OC1CCCC1 [Compound 658] | – | 9% | 20% | 97% | >99% | –
O=C(O)C(=O)N(CCCCc1ccccc1)c1cc(-c2ccc(OC(F)(F)F)cc2)ccc1OC1CCCCCC1 [Compound 659] | – | 12% | 26% | >99% | 96% | –

Structure (SMILES) | Inhibition Rate of PAI-1 Activity (%) (recombinant human PAI-1 [1]; Compound Concentration 10 μM) | Inhibition Rate of PAI-1 Activity (%) (recombinant human PAI-1 [2]; compound concentration 0.1 μM) | Inhibition Rate of PAI-1 Activity (%) (recombinant human PAI-1 [2]; compound concentration 0.3 μM) | Inhibition Rate of PAI-1 Activity (%) (recombinant human PAI-1 [2]; compound concentration 1 μM) | Inhibition Rate of PAI-1 Activity (%) (recombinant human PAI-1 [2]; compound concentration 3 μM) | further results
O=C(O)C(=O)N(Cc1ccc2ccccc2c1)c1ccc(-c2ccc(OC(F)(F)F)cc2)cc1 [Compound 661] | – | 6% | 11% | 27% | >99% | –
Cc1cc(C)cc(COc2ccc(-c3ccc(OC(F)(F)F)cc3)cc2N(CCCCc2ccccc2)C(=O)C(=O)O)c1 [Compound 662] | – | 18% | 28% | 98% | 95% | –
CC(C)(C)C1CCC(N(C(=O)C(=O)O)c2ccc(-c3ccc(OC(F)(F)F)cc3)cc2)CC1 (centres unmarked) [Compound 665] | – | – | – | – | – | Inhibition Rate of PAI-1 Activity (%) (recombinant human PAI-1 [2]; [3]): 9%; Inhibition Rate of PAI-1 Activity (%) (recombinant human PAI-1 [2]; [4]): 8%; Inhibition Rate of PAI-1 Activity (%) (recombinant human PAI-1 [2]; [5]): 67%; Inhibition Rate of PAI-1 Activity (%) (recombinant human PAI-1 [2]; [6]): >99%
CC(C)(C)C1CCC(N(C(=O)C(=O)O)c2ccc(-c3ccc(OC(F)(F)F)cc3)cc2)CC1 (centres unmarked) [Compound 666] | – | – | – | – | – | Inhibition Rate of PAI-1 Activity (%) (recombinant human PAI-1 [2]; [3]): 0%; Inhibition Rate of PAI-1 Activity (%) (recombinant human PAI-1 [2]; [4]): 21%; Inhibition Rate of PAI-1 Activity (%) (recombinant human PAI-1 [2]; [5]): 89%; Inhibition Rate of PAI-1 Activity (%) (recombinant human PAI-1 [2]; [6]): 98%
CCCCCCCCCCN(C(=O)C(=O)O)c1ccc(-c2ccc(OC(F)(F)F)cc2)cc1 [Compound 669] | – | 28% | 34% | >99% | >99% | –
CCCCCOc1ccc(-c2ccc(OC(F)(F)F)cc2)cc1N(CCCCc1cc(C)ccc1C)C(=O)C(=O)O [Compound 670] | – | 6% | 55% | 97% | 94% | –
O=C(O)C(=O)N(CCCCc1ccccc1)c1ccc(-c2ccc3ccccc3c2)cc1 [Compound 671] | – | 26% | 12% | 23% | 92% | –
CCCCCOc1ccc(-c2cc(C)cc(C)c2)cc1N(CCCCc1ccccc1)C(=O)C(=O)O [Compound 672] | – | 3% | 15% | 92% | >99% | –
O=C(O)C(=O)N(CCCCc1ccccc1)c1ccc(N2CCCC2)c(-c2ccc(OC(F)(F)F)cc2)c1 [Compound 673] | – | 0% | 15% | >99% | >99% | –
O=C(O)C(=O)N(CCCCc1ccccc1)c1ccc(N2CCCCCC2)c(-c2ccc(OC(F)(F)F)cc2)c1 [Compound 674] | – | 5% | 55% | >99% | 98% | –
O=C(O)C(=O)N(CCCCc1ccccc1)c1ccc(N2CCSCC2)c(-c2ccc(OC(F)(F)F)cc2)c1 [Compound 675] | – | 10% | 14% | 95% | >99% | –
O=C(O)C(=O)N(CCCCc1ccccc1)c1cc(-c2ccc(OC(F)(F)F)cc2)ccc1OCCCCCO [Compound 676] | – | 7% | 4% | 60% | >99% | –
CCCCCOc1ccc(-c2ccc(C)cc2)cc1N(CCCCc1ccccc1)C(=O)C(=O)O [Compound 677] | – | 19% | 17% | 93% | 98% | –
CCCCCOc1ccc(-c2ccc(C(C)C)cc2)cc1N(CCCCc1ccccc1)C(=O)C(=O)O [Compound 678] | – | 19% | 33% | 97% | 94% | –
CC(C)(C)C1CCC(CN(C(=O)C(=O)O)c2ccc(-c3ccc(OC(F)(F)F)cc3)cc2)CC1 (centres unmarked) [Compound 679] | – | – | 9% | – | >99% | Inhibition Rate of PAI-1 Activity (%) (recombinant human PAI-1 [2]; [3]): 6%; Inhibition Rate of PAI-1 Activity (%) (recombinant human PAI-1 [2]; [5]): 84%
CC(C)(C)C1CCC(CN(C(=O)C(=O)O)c2ccc(-c3ccc(OC(F)(F)F)cc3)cc2)CC1 (centres unmarked) [Compound 680] | – | – | 9% | – | >99% | Inhibition Rate of PAI-1 Activity (%) (recombinant human PAI-1 [2]; [3]): 7%; Inhibition Rate of PAI-1 Activity (%) (recombinant human PAI-1 [2]; [5]): 77%
